Measurements reported in US9243247B2, “Composition for promoting apoptosis or inhibiting cell growth, comprising epstein-barr virus microrna” (Catholic University Industry Academic Cooperation Foundation, priority 2011, dated 2016).

Experiments:
Assay type in all cases: cell-based
AGS cell strain [1] = test: Measurement of apoptosis (Annexin V staining, FACS); details: for Relative Apoptotic cell: AGS, mimic 10 nM, 10 uM 5-FU 24 h after transfection, then 48 hours, Annexin V, relative to scrambled control (=1), n=9; for effect on cell growth and apoptosis (summary statement): mimics transfected to AGS, tumor cell strain not infected with EBV
Protocol: Immediately after the AGS cell strain, which is an EBV-negative cell strain, was divided was divided into a 6-well plate such that 2×10^5 AGS cells were allocated to each well, a synthesized miRNA (10 nM) was transfected by using G-fectin and the resulting mixture was cultured at 37 t in an incubatorTwenty four hours after the transfection, 10 uM of 5-FU was treated and the resulting mixture was cultured in an incubator at 37° C. for 48 hours. The cells were detached by using Trypsin-EDTA and washed with PBS two times. Afterwards, the cells were treated with a PE Annexin V Apoptosis Detection Kit and the changed ratio of apoptotic cell was investigated by FACS (FIG. 7).
Immediately after the AGS cell strain, which is an EBV-negative cell strain, is divided into a 6-well plate such that 2×10^5 AGS cells were allocated to each well, a synthesized miRNA (10 nM) was transfected by using G-fectin and the resulting mixture was cultured at 37° C. Twenty four hours after the transfection, 10 uM of 5-FU, which is an anti-cancer agent, was treated and the resulting mixture was cultured in an incubator at 37° C. for 48 hours. The cells were detached by using Trypsin-EDTA and washed with PBS two times. Afterwards, the cells were treated with a PE Annexin V Apoptosis Detection Kit and the ratio of cells where apoptosis took place was measured by FACS.

AGS cell strain [2] = test: Effect on cell cycle (propidium iodide staining, FACS, sub G1); details: mimic 10 nM, 10 uM 5-FU 24 h after transfection, then 48 hours, relative to scrambled control (=1)
Protocol: The AGS cells were divided into a 96-well plate such that 2×10^5 AGS cells were allocated to each well, and synthesized miRNAs (10 nM) were transfected and cultured at 37° C. in an incubator. Twenty four hours after the transfection, 10 uM of 5-FU, which is an anti-cancer agent, was treated in one case or not treated in another case, and then the resulting mixture was cultured in an incubator at 37° C. for 48 hours. The cells were detached by using Trypsin-EDTA and washed with PBS two times.
Immediately after the AGS cell strains, which are EBV-negative cell strains, were divided into a 6-well plate such that 2×10^5 AGS cells were allocated to each well, a synthesized miRNA (10 nM) was transfected by using G-fectin and cultured at 37° C. in an incubator. Twenty four hours after the transfection, 10 uM of 5-FU was treated and the resulting mixture was cultured at 37° C. in an incubator for 48 hours. The cells were detached by using Trypsin-EDTA and washed with PBS two times. Afterwards, DNA was stained by propidium iodide staining and the ratio of cells where cell cycle was changed was investigated by FACS.

AGS cell strain [3] = test: Cell growth test (CCK-8 assay) after transfection of BART miRNA mimics; details: 72 hours after transfection; for Relative Cell Growth: mimic 10 nM, relative to scrambled control (=1)
Protocol: An AGS cell strain (Korean Cell Line Bank), which is a stomach cancer cell strain, was cultured in an RPMI1640 (Gibco) culture medium including 10% fetal bovine serum. Mature type synthesized BART miRNAs were transfected to the AGS cell strain by using G-fectin (Genolution) according to a protocol of the manufacture.
To investigate the effect of individual EBV BART miRNAs on the AGS cell strain, the synthesized miRNAs were transfected to the AGS cell strain and, after 72 hours, cells were counted by CCK-8 assay.
Immediately after the AGS cell strain, which is an EBV-negative cell strain, was divided into 96-well plate having 1×10^3 cells/well, a synthesized miRNA (10 nM) was transfected by using G-fectin. After the transfection, according to the experimental objective, the cells were cultured at 37° C. in an incubator, and then CCK-8 was divided among the wells by allocating 10 μl of CCK-8 to each well and the resulting mixture was cultured in an incubator at 37° C. for two hours. Then, the light absorbance was measured with an ELISA measuring instrument.
By the method described in Example 3, miR-BART5-5p mimic or miR-BART15-3p mimic (10 nM) were transfected to the AGS cell strain, and the effect thereof on cell growth was investigated over time.
miR-BART5-5p, miR-BART15-3p, and miR-BART20-3p were transfected to the AGS cell strain (1×10^3 cells/well) in a concentration of 1, 3, 10, and 30 nM, and the effect on cell growth was investigated. Immediately after the AGS cell strain was divided into a 96-well plate such that 1×10^3 AGS cells were allocated to each well, a synthesized miRNA was transfected by using G-fectin. Seventy two hours after the transfection, CCK-8 was divided among the wells by allocating 10 μl of CCK-8 to each well, and the resulting mixture was cultured at 37° C. in an incubator for two hours.

| Substance | Relative Apoptotic cell (AGS cell strain [1]) | Relative Sub G1 (AGS cell strain [2]) | Relative Cell Growth (AGS cell strain [3]; n=9) | effect on cell growth and apoptosis (summary statement) (AGS cell strain [1]) | further results |
| --- | --- | --- | --- | --- | --- |
| BART14-3p: EBV BART miRNA mimic, double stranded RNA; sense SEQ NO: 83, antisense SEQ NO: 84 (sense UAAAUGCUGCAGUAGUAGGGAU; antisense AUCCCUACUACUGCAGCAUUUA; chemistry not given here) | 0.9426 | 0.8757 | 1.447 |  |  |
| BART14-5p: EBV BART miRNA mimic, double stranded RNA; sense SEQ NO: 81, antisense SEQ NO: 82 (sense UACCCUACGCUGCCGAUUUACA; antisense UGUAAAUCGGCAGCGUAGGGUA; chemistry not given here) | 1.054 | 0.9076 | 1.408 |  |  |
| BART15-5p: EBV BART miRNA mimic, double stranded RNA; sense SEQ NO: 13, antisense SEQ NO: 14 (sense AGGGAAACAUGACCACCUGAAGUC; antisense GACUUCAGGUGGUCAUGUUUCCCU; chemistry not given here) | 1.022 | 0.8195 | 0.9545 |  |  |
| BART16-3p: EBV BART miRNA mimic, double stranded RNA; sense SEQ NO: 23, antisense SEQ NO: 24 (sense AUCACCACCCUCUAUCCAUAU; antisense AUAUGGAUAGAGGGUGGUGAU; chemistry not given here) | 1.37 | 0.9852 | 1.159 | inhibit cell growth and promote apoptosis | Relative Apoptotic cell (AGS cell strain [1]; listed as 16-3p): significantly higher |
| BART16-5p: EBV BART miRNA mimic, double stranded RNA; sense SEQ NO: 21, antisense SEQ NO: 22 (sense UUAGAUAGAGUGGGUGUGUGCUCU; antisense AGAGCACACACCCACUCUAUCUAA; chemistry not given here) | 1.312 | 1.182 | 0.705 | inhibit cell growth and promote apoptosis | Relative Apoptotic cell (AGS cell strain [1]; listed as 16-5p): significantly higher; Relative Sub G1 (AGS cell strain [2]; listed as 16-5p): increased; Relative Cell Growth (AGS cell strain [3]; n=9, listed as miR-BART16-5p): inhibited cell growth |
| BART17-3p: EBV BART miRNA mimic, double stranded RNA; sense SEQ NO: 27, antisense SEQ NO: 28 (sense UGUAUGCCUGGUGUCCCCUUAGU; antisense ACUAAGGGGACACCAGGCAUACA; chemistry not given here) | 1.088 | 1.067 | 0.7865 | inhibit cell growth and promote apoptosis | Relative Apoptotic cell (AGS cell strain [1]; listed as 17-3p): significantly higher; Relative Sub G1 (AGS cell strain [2]; listed as 17-3p): increased; Relative Cell Growth (AGS cell strain [3]; n=9, listed as miR-BART17-3p): inhibited cell growth |
| BART17-5p: EBV BART miRNA mimic, double stranded RNA; sense SEQ NO: 25, antisense SEQ NO: 26 (sense UAAGAGGACGCAGGCAUACAAG; antisense CUUGUAUGCCUGCGUCCUCUUA; chemistry not given here) | 1.004 | 1.099 | 0.9551 |  |  |
| BART18-3p: EBV BART miRNA mimic, double stranded RNA; sense SEQ NO: 39, antisense SEQ NO: 40 (sense UAUCGGAAGUUUGGGCUUCGUC; antisense GACGAAGCCCAAACUUCCGAUA; chemistry not given here) | 0.8705 | 0.9963 | 1.393 |  |  |
| BART18-5p: EBV BART miRNA mimic, double stranded RNA; sense SEQ NO: 37, antisense SEQ NO: 38 (sense UCAAGUUCGCACUUCCUAUACA; antisense UGUAUAGGAAGUGCGAACUUGA; chemistry not given here) | 1.202 | 0.9828 | 1.395 | inhibit cell growth and promote apoptosis | Relative Apoptotic cell (AGS cell strain [1]; listed as 18-5p): significantly higher |
| BART19-3p: EBV BART miRNA mimic, double stranded RNA; sense SEQ NO: 71, antisense SEQ NO: 72 (sense UUUUGUUUGCUUGGGAAUGCU; antisense AGCAUUCCCAAGCAAACAAAA; chemistry not given here) | 0.9742 | 1.244 | 1.237 |  | Relative Sub G1 (AGS cell strain [2]; listed as 19-3p): increased |
| BART19-5p: EBV BART miRNA mimic, double stranded RNA; sense SEQ NO: 69, antisense SEQ NO: 70 (sense ACAUUCCCCGCAAACAUGACAUG; antisense CAUGUCAUGUUUGCGGGGAAUGU; chemistry not given here) | 1.071 | 1.349 | 1.151 |  | Relative Sub G1 (AGS cell strain [2]; listed as 19-5p): increased |
| BART20-3p: EBV BART miRNA mimic, double stranded RNA; sense SEQ NO: 75, antisense SEQ NO: 76 (sense CAUGAAGGCACAGCCUGUUACC; antisense GGUAACAGGCUGUGCCUUCAUG; chemistry not given here) | 1.416 | 1.618 | 0.8577 | inhibit cell growth and promote apoptosis | Relative Apoptotic cell (AGS cell strain [1]; listed as 20-3p): significantly higher; Relative Sub G1 (AGS cell strain [2]; listed as 20-3p): increased; cell growth (AGS cell strain [3]; 30 nM): almost no cell growth; cell growth depending on mimic concentration (onset of inhibition) (AGS cell strain [3]; 1, 3, 10 and 30 nM): decreased cell growth, beginning at 10 nm; Relative Cell Growth (AGS cell strain [3]; n=9, listed as miR-BART20-3p): inhibited cell growth |
